Laboratory results published in publication PMC12647143 (Nature Communications, 2025).

Experiments:
[1] = test system: MRSA ATCC 33591; experiment: Antimicrobial-resistance test; type: cell-based, methicillin-resistant Staphylococcus aureus; conditions: for increase in MIC after continuous 14 passages exposure: MRSA ATCC 33591, 1/2 × MIC
[2] = test system: K. pneumoniae ATCC 700603; experiment: Antimicrobial-resistance test; type: cell-based, Klebsiella pneumoniae; conditions: 1/2 × MIC
[3] = test system: MRSA ATCC 33591; experiment: ROS accumulation assay; type: cell-based, methicillin-resistant Staphylococcus aureus; conditions: 2 × MIC and 4 × MIC
[4] = test system: MRSA ATCC 33591; experiment: Bacteria-induced pneumonia model; type: in vivo, Kunming mice; conditions: MRSA ATCC 33591 pneumonia model
[5] = test system: K. pneumoniae ATCC 700603; experiment: ROS accumulation assay; type: cell-based, Klebsiella pneumoniae; conditions: 1 ×, 2 ×, 4 × MIC
[6] = test system: K. pneumoniae ATCC 700603; experiment: Bacteria-induced pneumonia model; type: in vivo, Kunming mice
[7] = RT-qPCR of Cystatin C, Lipocalin 2, Havcr1 mRNA in kidney; type: in vivo, Kunming mice; conditions: AMP 1003 20 or 30 mg/kg; polymyxin B 20 mg/kg
[8] = Renal tubular injury score; conditions: AMP 1003 20 or 30 mg/kg; polymyxin B 20 mg/kg; score 0-5
[9] = ELISA of NGAL, Cystatin C and Kim-1 in serum and urine; conditions: 20 mg/kg or 30 mg/kg; 7 days
[10] = In vivo toxicity assay, single intraperitoneal injection
[11] = test system: multidrug-resistant bacteria; conditions: cited from earlier work
[12] = test system: mammalian cells; conditions: cited from earlier work

Compound: CNC(C)C1CCC(N)C(OC2C(N)CC(N)C(OC3OCC(C)(O)C(NC)C3O)C2O)O1 (centres unmarked) [Gentamicin]
- increase in MIC after continuous 14 passages exposure [1]: up to 128 fold
- increase in MIC (cross-resistance) ([1]; final generation of MRSA ATCC 33591 treated with the peptide for 14 passages): 128 fold
- increase in MIC after continuous 14 passages exposure [2]: up to 512 fold

Compound: C[C@@H](O)[C@H]1C(=O)N2C(C(=O)O)=C(SCCN=CN)C[C@H]12 [Imipenem]
- increase in MIC after continuous 14 passages exposure [1]: up to 8 fold
- increase in MIC after continuous 14 passages exposure [2]: up to 16 fold

Compound: CN(C)c1ccc(O)c2c1C[C@H]1C[C@H]3[C@H](N(C)C)C(O)=C(C(N)=O)C(=O)[C@@]3(O)C(O)=C1C2=O [Minocycline]
- increase in MIC after continuous 14 passages exposure [2]: up to 8 fold

Compound: CN[C@H](CC(C)C)C(=O)N[C@H]1C(=O)N[C@@H](CC(N)=O)C(=O)N[C@H]2C(=O)N[C@H]3C(=O)N[C@H](C(=O)N[C@H](C(=O)O)c4cc(O)cc(O)c4-c4cc3ccc4O)[C@H](O)c3ccc(c(Cl)c3)Oc3cc2cc(c3O[C@@H]2O[C@H](CO)[C@@H](O)[C@H](O)[C@H]2O[C@H]2C[C@](C)(N)[C@H](O)[C@H](C)O2)Oc2ccc(cc2Cl)[C@H]1O [Vancomycin]
- ROS accumulation [3]: no such effect
- lung histology (H&E) [4]: substantially alleviated these pathological changes

Compound: Polymyxin B
- ROS accumulation [5]: ROS elevation was observed only at 2 × MIC and 4 × MIC
- lung histology (H&E) ([6]; K. pneumoniae ATCC 700603 pneumonia model): substantially alleviated these pathological changes
- decrease of bacterial load in the lungs ([6]; K. pneumoniae ATCC 700603 pneumonia, 5 mg/kg i.p. at 4, 8, 12 h, 24 h, n = 6): 1.58 log10CFU
- Cystatin C, Lipocalin 2 and Havcr1 mRNA in the kidneys [7]: notable increase in Cystatin C and Lipocalin 2 mRNA levels
- renal tubular injury scores [8]: significantly higher injury scores than normal mice
- NGAL, Cystatin C and Kim-1 levels in serum or urine [9]: did not cause noticeable changes
- organ indices (heart, liver, spleen, lung, kidney) ([10]; 7 days, vs control group): higher than that in the control group
- BUN and CREA levels ([10]; 7 days, AMP 1003 20, 30 or 40 mg/kg, polymyxin B 20 mg/kg): comparable to that of control group
- hepatotoxicity (ALT, AST) ([10]; 7 days, AMP 1003 all doses, polymyxin B 20 mg/kg): no apparent hepatotoxicity
- organ histology (H&E) ([10]; AMP 1003: only at 40 mg/kg): more severe tissue damage

Compound: melittin
- MIC [11]: 1 to 16 µM
- concentration causing cytotoxicity and hemolysis [12]: 2000 nM
